Measured values from ChEMBL document CHEMBL5113405, “Discovery, enantioselective synthesis of myrtucommulone E analogues as tyrosyl-DNA phosphodiesterase 2 inhibitors and their biological activities” (Eur J Med Chem, 2022).
Active and inactive are the calls of the source. No cut-off for these calls is given here.

Key:
[1] = biological target: T1, Tyrosyl-DNA phosphodiesterase 2 (Homo sapiens, UniProt O95551); experiment: Inhibition of N-terminal His-tagged human TDP2 expressed in Escherichia coli BL21 using 4-nitrophenyl phenylphosphonate as substrate incubated for 60 mins by EDTA based chromogenic assay
T1 sequence (O95551 whole entry): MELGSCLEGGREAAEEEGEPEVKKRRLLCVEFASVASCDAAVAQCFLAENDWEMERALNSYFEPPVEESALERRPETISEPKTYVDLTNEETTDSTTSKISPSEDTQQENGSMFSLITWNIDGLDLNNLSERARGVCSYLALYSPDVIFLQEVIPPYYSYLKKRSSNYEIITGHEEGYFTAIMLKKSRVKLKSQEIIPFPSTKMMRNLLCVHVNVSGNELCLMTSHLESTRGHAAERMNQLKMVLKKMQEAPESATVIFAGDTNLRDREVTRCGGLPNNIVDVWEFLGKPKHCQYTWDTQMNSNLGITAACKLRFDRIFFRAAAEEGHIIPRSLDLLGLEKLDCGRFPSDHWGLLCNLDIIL

DU-145 [2] = experiment: Cytotoxicity against human DU-145 cells assessed as cell growth inhibition for 72 hrs by MTT assay; assay type: functional
A549 = experiment: Cytotoxicity against human A549 cells assessed as cell growth inhibition for 72 hrs by MTT assay; assay type: functional
DU-145 [3] = experiment: Cytotoxicity against human DU-145 cells assessed as cell growth inhibition for 72 hrs in presence of etoposide by MTT assay; assay type: functional
DU-145 [4] = experiment: Synergistic cytotoxicity against human DU-145 cells assessed as combination index incubated for 72 hrs in presence of etoposide by MTT-based Chou-Talalay method; assay type: functional
DU-145 [5] = experiment: Synergistic cytotoxicity against human DU-145 cells assessed as combination index incubated for 72 hrs in presence of doxorubicin by MTT-based Chou-Talalay method; assay type: functional
[6] = Synergistic cytotoxicity against chicken DT40 cells assessed as combination index incubated for 72 hrs in presence of etoposide by MTT-based Chou-Talalay method; assay type: functional, Gallus gallus
[7] = Synergistic cytotoxicity against chicken DT40 cells expressing human TDP2 assessed as combination index incubated for 72 hrs in presence of etoposide by MTT-based Chou-Talalay method; assay type: functional, Gallus gallus
DU-145 [8] = experiment: Synergistic cytotoxicity against human DU145 cells assessed as inhibition of colony formation at 5 uM incubated for 14 days in presence of etoposide by crystal violet staining based analysis; assay type: functional, cell-based; settings: time 14.0 day
DU-145 [9] = experiment: Synergistic cytotoxicity against human DU145 cells assessed as inhibition of colony formation at 5 uM incubated for 14 days in presence of doxorubicin by crystal violet staining based analysis; assay type: functional, cell-based; settings: time 14.0 day
[10] = Induction of reactive oxygen species production assessed as increase in hydrogen peroxide production […] in presence of DTT by redox cycling assay; assay type: functional
DU-145 [11] = experiment: Cytotoxicity against human DU-145 cells assessed as cell growth inhibition at 10 uM for 72 hrs by MTT assay; assay type: functional

Row | SMILES | IC50 [1] | GI50 (DU-145 [2]; Homo sapiens, DU-145, 72 h) | GI50 (A549; Homo sapiens, A549, 72 h) | other results
1 | CC(C)[C@@H]1C2=C(Oc3c1c(OCC(=O)N(C)C)cc1c3[C@@H](C(C)C)C3=C(O1)C(C)(C)C(=O)C(C)(C)C3=O)C(C)(C)C(=O)C(C)(C)C2=O | 5.4 µM | 26 µM | 62 µM | inhibition (INH) (DU-145 [3]): 77%; CI (DU-145 [4]): 0.26; CI (DU-145 [5]): 0.81; CI [6]: 0.95; CI [7]: 0.48; Activity (DU-145 [8]): Active; Activity (DU-145 [9]): Active
2 | CC1(C)CCC2=C(O1)c1ccccc1C(=O)C2=O | – | – | – | Activity [10]: Active
3 | COc1cc([C@@H]2c3cc4c(cc3[C@@H](O[C@@H]3O[C@@H]5CO[C@@H](C)O[C@H]5[C@H](O)[C@H]3O)[C@H]3COC(=O)[C@H]23)OCO4)cc(OC)c1O [ETOPOSIDE] | – | 13 µM | 10 µM | inhibition at 10 µM (DU-145 [11]): 47%
4 | CC(C)[C@@H]1C2=C(Oc3c1c(OCCCN1CCN(C)CC1)cc1c3[C@@H](C(C)C)C3=C(O1)C(C)(C)C(=O)C(C)(C)C3=O)C(C)(C)C(=O)C(C)(C)C2=O | 20 µM | 51 µM | 63 µM | –
5 | COc1c(C(=O)C(C)C)c2c(c3c1[C@@H](C(C)C)C1=C(O3)C(C)(C)C(=O)C(C)(C)C1=O)[C@H](C(C)C)C1=C(O2)C(C)(C)C(=O)C(C)(C)C1=O (racemic) | 55 µM | 13 µM | 31 µM | –
6 | CC(C)C(=O)c1c(O)c2c(c3c1OC1=C(C(=O)C(C)(C)C(=O)C1(C)C)[C@H]3C(C)C)OC1=C(C(=O)C(C)(C)C(=O)C1(C)C)[C@@H]2C(C)C | 50 µM | – | – | GI50 (DU-145 [2]; 72 h): 41 µM; GI50 (A549; 72 h): 60 µM
7 | CCN(CC)CCOc1cc2c(c3c1[C@H](C(C)C)C1=C(O3)C(C)(C)C(=O)C(C)(C)C1=O)[C@@H](C(C)C)C1=C(O2)C(C)(C)C(=O)C(C)(C)C1=O | 53 µM | 23 µM | 46 µM | –
8 | CC(C)[C@@H]1C2=C(Oc3c1c(O)cc1c3[C@@H](C(C)C)C3=C(O1)C(C)(C)C(=O)C(C)(C)C3=O)C(C)(C)C(=O)C(C)(C)C2=O | 25 µM | 23 µM | 27 µM | –
